Measured values reported in patent US20160051665A1, “INDUCTION OF IMMUNE RESPONSE” (priority 2010, published 2016).

Experiments:
[1] = system: HBV-containing HepG2.2.15 cells; experiment: interferon-γ ELISpot: peptide-primed CTLs against BuCas-treated target cells; format: cell-based, human; settings: BuCas 1 mg/ml twice at 3 day interval, FIG. 2B
Procedure: Heparinized blood from healthy HLA-A2 donors was purchased from Research Blood Components, LLC, (Brighton, Mass.). Peripheral blood mononuclear cells were purified and cultured as described (13, 21). After initial stimulation with synthetic peptide, T cells were re-stimulated with CD4/CD8 T cell depleted autologous monocytes pulsed with synthetic peptide at 10 μg/ml for 5 days. IL-2 treatment and in vitro re-stimulation were repeated thrice prior to use of in vitro expanded T cells in ELISpot assays.
In vitro expanded CTLs were used as effectors in ELISpot assays to assess antigen stimulated interferon-γ release according to the manufacturer's instructions (BD-Pharmingen, San Jose, Calif.). Target cells were HepG2 human hepatoma cells (HBV negative; American Type Culture Collection) or HBV-containing HepG2.2.15 cells (22). […]
Peptides presented on the surface of a cell in the context of the MHC class I complex should be recognized with high sensitivity upon incubation with cognate peptide-primed CTLs, with specific killing of the target cells. […] Target cell recognition was quantified by interferon-γ ELISpot assay.
The ability of in vitro generated CTLs to recognize and secrete interferon-γ was evaluated by ELISpot assay. […] The P value was calculated from a Student's t-Test analysis of experimental results.

[2] = system: WHV surface antigen (WHsAg); experiment: serum WHsAg enzyme immunoassay in chronic WHV carrier woodchucks; format: in vivo, woodchuck; settings: for WHsAg, Av(range): serum
Procedure: All experimental procedures involving woodchucks were performed under protocols approved by the Cornell University Institutional Animal Care and Use Committee. Woodchucks were born to WHV-negative females in environmentally controlled laboratory animal facilities and inoculated at 3 days of age with 5 million infectious doses of a standardized WHV inoculum (23). Woodchucks were selected as chronic WHV carriers based on persistent detection of WHV surface antigen (WHsAg) and WHV DNA in serum prior to treatments. All animals were free of HCC at the beginning of the study as determined by hepatic ultrasound examination and normal serum activity of γ-glutamyl-transferase (GGT).
Twenty adult chronically infected woodchucks were stratified by age, sex, body weight, serum viral load, and serum GGT activity into four treatment groups of five animals each. Drug was administered orally at 100 mg/kg (in sterile water), chosen after an initial dose finding trial. […] The subunit vaccine consisted of 22-nm WHsAg particles, purified by zonal ultracentrifugation from serum of WHV7P1-infected WHV carriers (24), inactivated with formalin, and adsorbed onto alum. Prior to alum adsorption, vaccine was tested in naïve, WHV-susceptible animals and no residual virus was detected. Purified WHsAg was not pretreated with enzymes that remove preS sequences. […]
Serum WHV DNA was measured quantitatively by dot blot hybridization (assay sensitivity, ≧1.0×10^7 WHV genome equivalents per ml [WHVge/ml]) (25). Serum WHsAg, antibodies to WHV core antigen (anti-WHc), and WHV surface antigen (anti-WHs) were determined with WHV-specific enzyme immunoassays (26). […]
Woodchucks chronically infected with WHV experienced significant immunological responses to envelope proteins following immunization with WHsAg-containing vaccines, especially in the context of low viral and antigen loads following treatment with an effective antiviral agent, 1-(2-fluoro-5-methyl-beta-L-arabinofuranosyl)-uracil (L-FMAU) (29, 35). […] Animals were scored as positive if cells proliferated above the cut-off value of 2: 3.1. […]

[3] = observation of woodchucks for drug-related toxicity; format: in vivo, woodchuck; settings: 100 mg/kg orally, weighed bi-weekly, observed daily

## CCCC(=O)O[C@H]1CN2CC[C@H](O)[C@@H]2[C@@H](O)[C@H]1O [BuCas, 6-O-butanoyl castanospermine]
[1]; CTLs primed with D-peptide
  presentation of the D-peptide epitope by target cells: increased significantly
[1]; CTLs primed with N-peptide
  presentation of the N-peptide epitope by target cells: reduced
[2]; chronic WHV carrier woodchucks, all times tested
  antigenemia, in words: not altered significantly
[2]; week 0 (baseline)
  WHsAg, Av(range): .38(.28-.43) optical density units
[2]; week 10
  WHsAg, Av(range): .42(33-.52) optical density units
[3]
  drug-related toxicity: no evidence of drug-related toxicity was seen
